From PMC12973313 (Chemical Science, 2026)
≈ marks a conversion by molar mass, not a printed value. Where “and” joins values, the source holds several entries; their conditions need not be identical. Identical values can stand only once. Like-named read-outs stand apart in the source and are kept apart here.

Assays:
[1] = Quantitative 1H NMR, DMSO-d6 1% DCM (self-association); assay type: physicochemical; conditions: 112 mM, 298 K, proportion NMR silent
Excerpt: Initially, quantitative (Q) ^1H NMR spectroscopy experiments were undertaken in DMSO-d6 1% DCM, using the DCM as an internal standard to identify the presence of either low or high order SSA self-associated aggregates. Here, low-order SSA self-associated aggregates are defined as those directly observable using traditional solution state ^1H NMR spectroscopy such as the formation of hydrogen bonded anionic dimers. To determine the presence of low or high-order SSA aggregates, signals corresponding to the anionic or cationic component of the SSA are integrated against those of the internal DCM standard.

[2] = Dynamic light scattering, H2O 5% EtOH; assay type: physicochemical; conditions: 5.56 mM, 298 K, after annealing
Excerpt: The size and stability of those self-associated structures present were confirmed through a combination of dynamic light scattering (DLS) and zeta potential measurements respectively (Table 2). […] Therefore, the presence of the alkyl/aromatic R-groups within the amino acid appended SSA are confirmed to increase higher order self-associated aggregate stability.
Table S9 - The peak maxima and polydispersity indices obtained for 1, 3, 5, 7, 9, and 1:1 enantiomeric mixtures of 3 + 5 and 7 + 9 obtained at 5.56 mM in H2O/5 % EtOH. An annealing process was applied in which the samples were heated to approximately 313 K before being cooled down to a measurement temperature of 298 K. The errors given are the standard error of the average.
Compound Repeat Peak maxima (nm) Polydispersity index

S. aureus NCTC 13616 = assay: MIC assay; assay type: cell-based, Staphylococcus aureus
Experimental: Next generation SSAs 3, 5, 7, and 9 were specifically designed to increase the activity of SSAs against both drug susceptible and resistant S. aureus and ovarian cancer cells. […] These strains include: (i) USA300, a common clinically relevant, methicillin resistant strain;[47] […]
Section S3: Biological methods […]
Preparation of bacterial plates : Sterile TSB agar plates were streaked using the desired […]
Preparation of inoculum: An initial culture was made up by inoculating TSB (5 mL) with 3 single colonies of the desired bacteria under sterile conditions and incubated at 37 °C overnight. The optical density at 600 nm (OD 600) was adjusted using sterile distilled H 2O (dH2O) to equal ~1 x 10^6 bacteria/mL.
Preparation of 96 -well microplate : A solution of each compound in H2O/5 % EtOH was made […]
The compound solution (200 […]
µL) was added to and diluted 50:50 down the plate. The bacterial suspension (100 µL) was dispensed into each well under sterile conditions. […]

[3] = system: Galleria mellonella larvae; assay: G. mellonella toxicity assay; assay type: in vivo; conditions: out of 10, 10 µL of 5 mM in H2O/EtOH 19:1, 37 °C
Experimental: Finally, we gauged the toxicity of SSAs 1, 3, 5, 7, and 9 as either homogenous solutions or heterogenous (1 : 1) enantiomeric mixtures towards multicellular organisms which have an intrinsic immune system.[66] Here, Galleria mellonella larvae were injected with 10 µL of SSA (5 mM) in a distilled H2O/EtOH 19 : 1 solution and then incubated at 37 °C for a maximum of five days and the number of surviving larvae recorded each day. […]. […]
G. mellonella treatment assay: G. mellonella larvae were purchased from Livefood UK Ltd.
(Rooks Bridge, UK) and maintained on wood chips in the dark at 15 °C until use. Galleria
larvae were injected with 10 µL of compound in H2O/5 % EtOH, incubated at 37 °C for 5 days
and the deaths counted. Groups of 10 Galleria were injected per compound. […]

[4] = Staphylococcus aureus, NCTC13616, 15 h, total molecular concentration, after 900 min, read-out: MIC NCTC 13616
[5] = Staphylococcus aureus, NCTC13616, lowest concentration with no visible growth, read-out: MIC (mM) S. aureus 13616

Row | SMILES | Q NMR (%) SSA anion [1] [%] | Q NMR (%) SSA cation [1] [%] | dH (nm), DLS intensity distribution peak maxima [2] | MIC (S. aureus NCTC 13616; [4]) [mM] | MIC (S. aureus NCTC 13616; [5]) [mM] | Galleria moth larvae survived Day 1 [3] | Galleria moth larvae survived Day 2 [3] | Galleria moth larvae survived Day 3 [3] | Galleria moth larvae survived Day 4 [3] | Galleria moth larvae survived Day 5 [3] | also measured
1 | O=C(Nc1ccc(C(F)(F)F)cc1)N[C@@H](Cc1ccccc1)C(=O)O [SSA 7] | 0 | 0 | 166.62 (± 19.14) nm and 167 nm | 0.087 (≈ 30.7 µg/mL) | 0.087 (≈ 30.7 µg/mL) | 10 | 4 | 4 | 4 | 4 | 
2 | CC(C)CC(NC(=O)Nc1ccc(C(F)(F)F)cc1)C(=O)O (stereo not drawn) [SSA 5] |  |  |  |  |  |  | 9 |  |  |  | dH (nm), DLS intensity distribution peak maxima ([2]; listed as 5): 174.05 (± 13.00) nm and 174 nm; MIC (mM) S. aureus 13616 (S. aureus NCTC 13616; lowest concentration with no visible growth): 0.087 mM (≈ 27.7 µg/mL); MIC (S. aureus NCTC 13616; total molecular concentration, after 900 min, read-out: MIC NCTC 13616): 0.087 mM (≈ 27.7 µg/mL); Galleria moth larvae survived Day 1 ([3]; listed as 5): 10; Galleria moth larvae survived Day 3 ([3]; listed as 5): 8; Galleria moth larvae survived Day 4 ([3]; listed as 5): 8; Galleria moth larvae survived Day 5 ([3]; listed as 5): 8
3 | O=C(O)CNC(=O)Nc1ccc(C(F)(F)F)cc1 [SSA 1] |  |  |  | > 2.78 | > 2.78 | 10 | 9 | 8 | 6 | 6 | 
4 | O=C(Nc1ccc(C(F)(F)F)cc1)N[C@H](Cc1ccccc1)C(=O)O [SSA 9] | 0 | 0 | 180.99 (± 53.12) nm and 181 nm | 0.087 (≈ 30.7 µg/mL) | 0.087 (≈ 30.7 µg/mL) | 9 | 9 | 9 | 7 | 5 | 
5 | CC(C)CC(NC(=O)Nc1ccc(C(F)(F)F)cc1)C(=O)O (stereo not drawn) [SSA 3] | 0 | 0 |  | 0.087 (≈ 27.7 µg/mL) | 0.087 (≈ 27.7 µg/mL) |  | 9 |  |  |  | dH (nm), DLS intensity distribution peak maxima ([2]; listed as 3): 265.65 (± 19.29) nm and 266 nm; Galleria moth larvae survived Day 1 ([3]; listed as 3): 9; Galleria moth larvae survived Day 3 ([3]; listed as 3): 9; Galleria moth larvae survived Day 4 ([3]; listed as 3): 6; Galleria moth larvae survived Day 5 ([3]; listed as 3): 5
